Like-named read-outs stand apart in the source and are kept apart here.
How the values were obtained:
[1] = Oil water partition coefficients (octanol/water, HPLC); assay type: physicochemical; settings: for lipid water partitioning, in words: passage through gastrointestinal barrier and blood brain barrier
Experimental: Partition coefficients were determined by dissolving the compound in a 1:1 mixture of octanol/water and shaking the solution for 12 hours. HPLC was used to determine the partition coefficient. The reported values are the log of the octanol/water partition

[2] = pKa by potentiometric titration; assay type: physicochemical; settings: aqueous solution, ionic strength 0.10, 25° C.
Experimental: PKa's were determined by standard potentiometric titration methods in aqueous solution with an ionic strength of 0.10 at 25° C. Values are reported as log K values of the equilibrium constant.

[3] = tested on: E. coli (GM 7359) alkA tag E. coli mutant; settings: 60 minutes
Experimental: (§2) Bacteria were inoculated and cultured in nutrient agar for eighteen hours, using a shaking incubator at 140 r.p.m and 35° C. Medium contained 10 mM HEPES buffer at pH 7. Cells were centrifuged twice in Sorval RC-5 centrifuge 12,000 r.pm.×15 minutes at 4° C. and washed twice in 10 uM HEPES buffer. The resuspended cells were counted using a Hemocrit and diluted to a level of 5×10^1 cells per ml in 10 μM HEPES. The cells, the following toxins; methyl viologen (paraquat), methyl viologen (MPP^+), rotenone, daizoxide, streptozotocin and alloxan, and antidotes were added, reaching final volumes of 1 ml in Eppendorf tubes and placed on a rotator at room temperature. 10 μM diethylenetriaminepentaacetic acid was added to the samples to terminate the reactions at the specified times of either twenty or sixty minutes. 300 μL of cells were plated on Petri plates containing nutrient agar and incubated at 35° C. overnight. Colonies were counted after 20 hours. Percentage survival as compared with culture controls is calculated from the means of triplicates in each experimental group.

[4] = cited from earlier work
[5] = tested on: E. coli (GM 7359) alkA tag E. coli mutant; assay: Bacterial survival, toxin streptozotocin and antidotes; settings: 60 minutes
Experimental: as §2

M. Luteus (ATCC 499732) = assay: Bacterial survival, toxin diazoxide and antidotes
Experimental: as §2

[6] = tested on: E. coli (GM 7359) alkA tag E. coli mutant; settings: 60 minutes; remark: listed apart in the source
Experimental: as §2

S. aureus (ATCC 29213) [7] = assay: Bacterial survival, toxin diazoxide and antidotes; assay type: cell-based; settings: 60 minutes
Experimental: (§1) Medium contained 10 mM HEPES buffer at pH 7. […] Colonies were counted after 20 hours.

[8] = tested on: MPTP induced dopamine loss; settings: previously reported; cited from earlier work
S. aureus (ATCC 29213) [9] = assay type: cell-based
Experimental: as §1

E. coli (ATCC 35150) = assay type: cell-based; settings: 60 minutes
Experimental: as §1

[10] = 1:1 octanol/water, shaken 12 hours, HPLC
[11] = 0.15 mM Diazoxide + 2.5 uM antidote
[12] = 0.15 mM Diazoxide + 5 uM antidote

NCCNCCNCCN [2,2,2-tetramine, reference compound]
Log Partition Coefficient Octanol:Water [1, 10]: 1.6
lipid water partitioning, in words [1]: optimal lipid water partitioning
pKa(1) [2]: 9.7
pKa(2) [2]: 9.1
pKa(3) [2]: 6.6
pKa(4) [2]: 3.3
Mean % Survival ([3]; 100 mM Rotenone + 0.5 mM antidote): 67%
Mean % Survival ([3]; 100 mM Rotenone + 2 mM antidote): 100%
Mean % Survival ([3]; substance alone 2 mM): 100%
half life in vivo [4]: only a few hours
metabolism and excretion, in words ([4]; in vivo): rapidly metabolized to acetyl 2,2,2-tetramine and rapidly excreted

c1ccc(CNCCCNCc2ccccn2)nc1 [2,3,2-pyridine, (2-pyridylmethyl){3-[(2-pyridylmethyl)amino]propyl}amine]
Mean % Survival ([5]; 100 uM Streptozotocin + 2.5 uM antidote): 100%
Mean % Survival ([5]; 100 uM Streptozotocin + 5 uM antidote): 100%
Mean % Survival ([5]; 100 uM Streptozotocin + 20 uM antidote): 100%
Mean % Survival ([5]; substance alone 20 uM): 100%
logP at 12 h ([1]; octanol/water (1:1), 1:1 octanol/water, shaken 12 hours, HPLC, read-out: Log Partition Coefficient Octanol:Water): 2.7
lipid water partitioning, in words [1]: optimal lipid water partitioning
Mean % Survival (M. Luteus (ATCC 499732); 0.2 mM Diazoxide + 2.5 uM antidote, T20): 96%
Mean % Survival (M. Luteus (ATCC 499732); 0.2 mM Diazoxide + 2.5 uM antidote, T60): 99%
Mean % Survival (M. Luteus (ATCC 499732); 0.2 mM Diazoxide + 5 uM antidote, T20): 93%
Mean % Survival (M. Luteus (ATCC 499732); 0.2 mM Diazoxide + 5 uM antidote, T60): 100%
Mean % Survival (M. Luteus (ATCC 499732); 0.2 mM Diazoxide + 10 uM antidote, T20): 100%
Mean % Survival (M. Luteus (ATCC 499732); 0.2 mM Diazoxide + 10 uM antidote, T60): 100%
Mean % Survival (M. Luteus (ATCC 499732); 0.2 mM Diazoxide + 20 uM antidote, T20): 100%
Mean % Survival (M. Luteus (ATCC 499732); 0.2 mM Diazoxide + 20 uM antidote, T60): 100%
Mean % Survival (M. Luteus (ATCC 499732); 0.2 mM Diazoxide + 40 uM antidote, T20): 100%
Mean % Survival (M. Luteus (ATCC 499732); 0.2 mM Diazoxide + 40 uM antidote, T60): 70%
Mean % Survival (M. Luteus (ATCC 499732); substance alone 40 uM, T20 (20 minutes)): 100%
Mean % Survival (M. Luteus (ATCC 499732); substance alone 40 uM, T60 (60 minutes)): 100%
Mean % Survival ([6]; 2 mM Alloxan + 10 uM antidote): 100%
Mean % Survival ([6]; substance alone 10 uM): 100%
pKa ([2]; read-out: pKa(1)): 8.3
pKa ([2]; read-out: pKa(2)): 7.4
Mean % Survival ([3]; 100 uM Rotenone + 2.5 uM antidote): 100%
Mean % Survival ([3]; 100 uM Rotenone + 5 uM antidote): 100%
Mean % Survival ([3]; 100 uM Rotenone + 20 uM antidote): 100%
Mean % Survival ([3]; 100 uM Rotenone + 50 uM antidote): 100%
Mean % Survival ([3]; substance alone 50 uM): 100%
Mean % Survival (S. aureus (ATCC 29213) [7]; [11]): 61%
Mean % Survival (S. aureus (ATCC 29213) [7]; [12]): 84%
Mean % Survival (S. aureus (ATCC 29213) [7]; substance alone 5 uM): 99%

NCCNCCCNCCN [2,3,2-tetramine, 1,3-bis-[(2′-aminoethyl)-amino]propane]
Log Partition Coefficient Octanol:Water [1, 10]: 2.1
lipid water partitioning, in words [1]: optimal lipid water partitioning
prevention of MPTP induced dopamine loss, in words [8]: prevent MPTP induced dopamine loss
Mean % Survival (S. aureus (ATCC 29213) [9]): 78%
Mean % Survival (S. aureus (ATCC 29213) [9]; 0.5 mM Paraquat + 1 mM antidote, 60 minutes): 80%
Mean % Survival (S. aureus (ATCC 29213) [9]; substance alone 1 mM, 60 minutes): 100%
Mean % Survival (E. coli (ATCC 35150); 1.0 mM Paraquat + 1.0 mM antidote): 100%
Mean % Survival (E. coli (ATCC 35150); substance alone 1 mM): 100%
pKa(1) [2]: 10.3
pKa(2) [2]: 9.5
pKa(3) [2]: 7.3
pKa(4) [2]: 6.0
Mean % Survival (S. aureus (ATCC 29213) [7]; [11]): 65%
Mean % Survival (S. aureus (ATCC 29213) [7]; [12]): 78%
Mean % Survival (S. aureus (ATCC 29213) [7]; 0.15 mM Diazoxide + 10 uM antidote): 78%
Mean % Survival (S. aureus (ATCC 29213) [7]; 0.15 mM Diazoxide + 20 uM antidote): 75%
Mean % Survival (S. aureus (ATCC 29213) [7]; substance alone 20 uM): 99%

C[n+]1ccc(-c2cc[n+](C)cc2)cc1 [Paraquat]
Mean % Survival (S. aureus (ATCC 29213) [9]; substance alone 0.5 mM, 60 minutes): 39%
Mean % Survival (E. coli (ATCC 35150); substance alone 0.5 mM): 16%
Mean % Survival (E. coli (ATCC 35150); substance alone 1 mM): 10%

Source: patent publication US20140057877A1, “Therapeutic polyamine compositions and their synthesis” (priority 2002, published 2014)
